Experimental data published in publication PMC4537469 (Protein & Cell, 2015).

Key:
[1] = biological target: T1, RXRα (Homo sapiens, UniProt P19793, R316E); assay: mammalian one-hybrid reporter in MCF-7 cells, antagonism of CD3254 (N-6 at […]); format: cell-based
T1 construct: gene RXRA; Gal4-DBD-RXRα-LBD
T1 sequence (P19793 223-462 R316E limits assumed): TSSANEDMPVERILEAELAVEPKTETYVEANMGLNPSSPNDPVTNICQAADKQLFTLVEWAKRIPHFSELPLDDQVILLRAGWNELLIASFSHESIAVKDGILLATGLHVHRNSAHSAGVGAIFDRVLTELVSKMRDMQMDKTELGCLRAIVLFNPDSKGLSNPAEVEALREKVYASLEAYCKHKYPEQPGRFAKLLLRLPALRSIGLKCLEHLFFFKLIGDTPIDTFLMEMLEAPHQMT

[2] = biological target: T2, RXRα (Homo sapiens, UniProt P19793, W305A); assay: SPR (BIAcore T200); format: binding
T2 construct: gene RXRA; RXRα-LBD
T2 sequence (P19793 223-462 W305A): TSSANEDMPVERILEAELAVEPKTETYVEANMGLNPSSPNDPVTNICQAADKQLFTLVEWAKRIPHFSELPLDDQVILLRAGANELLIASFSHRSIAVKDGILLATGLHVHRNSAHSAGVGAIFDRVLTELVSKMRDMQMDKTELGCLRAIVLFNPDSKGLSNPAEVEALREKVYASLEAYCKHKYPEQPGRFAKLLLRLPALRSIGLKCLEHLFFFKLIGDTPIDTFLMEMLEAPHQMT

[3] = biological target: T3, RXRα (Homo sapiens, UniProt P19793); assay: SPR (BIAcore T200); also [3H]9-cis-RA competition (IC50 […]), fluorescence binding, TR-FRET coactivator assay (IC50 […])
T3 construct: gene RXRA; His-tagged human RXRα-LBD (223–462)
T3 sequence (P19793 223-462): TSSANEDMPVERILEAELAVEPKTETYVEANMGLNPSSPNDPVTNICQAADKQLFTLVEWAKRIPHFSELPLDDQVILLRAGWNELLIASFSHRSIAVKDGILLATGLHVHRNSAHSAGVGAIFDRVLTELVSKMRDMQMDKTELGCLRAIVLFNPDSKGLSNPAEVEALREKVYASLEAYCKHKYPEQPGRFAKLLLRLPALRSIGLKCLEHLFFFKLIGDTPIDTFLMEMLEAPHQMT

[4] = biological target: T1, RXRα; assay: mammalian one-hybrid reporter in MCF-7 cells ([…]); format: cell-based
[5] = biological target: the molecule itself; assay: native gel or EMSA; RXRα-LBD protein (2 mg/mL) incubated with DMSO, 10 μmol/L 9-cis-RA, 25 or 50 μmol/L N-6 for 3 h; 8% nondenaturing PAGE, Coomassie staining

C/C(=N/O)c1sc(-n2nc(-c3ccccc3)cc2-c2ccccc2)nc1C [N-6, (NZ)-N-[1-[2-(3,5-diphenylpyrazol-1-yl)-4-methyl-1,3-thiazol-5-yl]ethylidene]droxylamine]
mammalian one-hybrid reporter in MCF-7 cells, antagonism of CD3254 (N-6 at 10 μm) [1]: CD3254-induced transactivation of RXRα-LBD/R316E was potently inhibited by N-6 | Kd [2]: 1000 µM | Kd [3]: 15.7 µM

Cc1cc2c(cc1-c1cc(/C=C/C(=O)O)ccc1O)C(C)(C)CCC2(C)C [CD3254]
mammalian one-hybrid reporter in MCF-7 cells (10^-7 mol/L) [4]: CD3254 was able to stimulate the transactivation of the mutant

B1: His-tagged human RXRα-LBD (223–462) (domain or fragment, UniProt P19793 223-462, looked up)
chain: TSSANEDMPVERILEAELAVEPKTETYVEANMGLNPSSPNDPVTNICQAADKQLFTLVEWAKRIPHFSELPLDDQVILLRAGWNELLIASFSHRSIAVKDGILLATGLHVHRNSAHSAGVGAIFDRVLTELVSKMRDMQMDKTELGCLRAIVLFNPDSKGLSNPAEVEALREKVYASLEAYCKHKYPEQPGRFAKLLLRLPALRSIGLKCLEHLFFFKLIGDTPIDTFLMEMLEAPHQMT
stoichiometry N [5]: 2
